Cn1cc([N+](=O)[O-])cn1
solubility (mole fraction)
Conditions | 283.15 K | 288.15 K | 293.15 K | 298.15 K | 303.15 K | 308.15 K | 313.15 K | 318.15 K | 323.15 K
in 1,2-dichlorobenzene | 0.000121 | 0.000147 | 0.000179 | 0.000215 | 0.000266 | 0.000331 | 0.000402 | 0.000492 | 0.000607
in 2-butanone | 0.0093 | 0.0098 | 0.0112 | 0.0139 | 0.0162 | 0.0177 | 0.021 | 0.0242 | 0.0285
in 2-pentanol | 0.000501 | 0.000685 | 0.000871 | 0.0011 | 0.00142 | 0.00175 | 0.00221 | 0.00278 | 0.00348
in acetic acid | 0.000218 | 0.000296 | 0.00039 | 0.000508 | 0.000633 | 0.000776 | 0.000925 | 0.00108 | 0.0012
in acetone | 0.0192 | 0.0239 | 0.0299 | 0.0379 | 0.0485 | 0.0626 | 0.0814 | 0.107 | 0.141
in acetonitrile | 0.00299 | 0.00334 | 0.00423 | 0.00507 | 0.006 | 0.00673 | 0.00756 | 0.00937 | 0.0117
in ethanol | 0.00483 | 0.00511 | 0.00546 | 0.00581 | 0.00633 | 0.00694 | 0.00736 | 0.00785 | 0.00823
in ethyl acetate | 0.0126 | 0.0143 | 0.0162 | 0.0183 | 0.0208 | 0.0235 | 0.0265 | 0.0299 | 0.0337
in isopropanol | 0.00185 | 0.00235 | 0.00292 | 0.00363 | 0.00455 | 0.00566 | 0.00697 | 0.0085 | 0.0102
in methanol | 0.00628 | 0.00699 | 0.00754 | 0.00835 | 0.00923 | 0.0103 | 0.0113 | 0.0126 | 0.014
in methyl acetate | 0.0161 | 0.0185 | 0.022 | 0.0255 | 0.0293 | 0.0351 | 0.0401 | 0.0461 | 0.0519
in n-butanol | 0.00205 | 0.00266 | 0.00323 | 0.00438 | 0.00559 | 0.00709 | 0.0091 | 0.0123 | 0.0154
in n-pentanol | 0.0016 | 0.00182 | 0.0021 | 0.0024 | 0.00278 | 0.00325 | 0.0038 | 0.00469 | 0.0054
in n-propanol | 0.00209 | 0.00229 | 0.00259 | 0.00296 | 0.00331 | 0.00382 | 0.00425 | 0.00487 | 0.00553
in sec-butanol | 0.000727 | 0.000891 | 0.00112 | 0.00151 | 0.00213 | 0.00287 | 0.00382 | 0.00501 | 0.00632
in toluene | 0.00714 | 0.00823 | 0.0095 | 0.0112 | 0.0132 | 0.0156 | 0.0189 | 0.0232 | 0.0276
in water | 7.5e-05 | 9.4e-05 | 0.000113 | 0.000127 | 0.000154 | 0.000181 | 0.000222 | 0.000273 | 0.000331

From BigSolDB 2.1
